Measurements: the NIST ThermoML archive (doi:10.1016/j.jct.2004.03.011)

Test: xn = mol fraction of the nth substance listed
Conditions: Liquid

CO [methanol] + O
excess molar volume [m3/mol]
Conditions | 298.15 K | 323.15 K | 348.15 K | 373.15 K | 398.15 K | 423.15 K | 448.15 K | 473.15 K | 498.15 K | 523.15 K
100 kPa, x1 = 0.25 | -7.42e-07 | -7.75e-07 | – | – | – | – | – | – | – | –
100 kPa, x1 = 0.5 | -1.014e-06 | -1.049e-06 | – | – | – | – | – | – | – | –
100 kPa, x1 = 0.75 | -7.05e-07 | -7.38e-07 | – | – | – | – | – | – | – | –
5000 kPa, x1 = 0.25 | -7.13e-07 | -7.41e-07 | -7.75e-07 | -8.26e-07 | -8.9e-07 | -9.81e-07 | -1.223e-06 | -1.902e-06 | – | –
5000 kPa, x1 = 0.5 | -9.63e-07 | -9.91e-07 | -1.022e-06 | -1.082e-06 | -1.146e-06 | -1.247e-06 | -1.583e-06 | -2.545e-06 | – | –
5000 kPa, x1 = 0.75 | -6.74e-07 | -7.02e-07 | -7.58e-07 | -8.14e-07 | -8.68e-07 | -9.59e-07 | -1.163e-06 | -1.736e-06 | – | –
10000 kPa, x1 = 0.25 | -6.85e-07 | -7.07e-07 | -7.33e-07 | -7.67e-07 | -8.12e-07 | -8.74e-07 | -9.78e-07 | -1.285e-06 | -2.081e-06 | –
10000 kPa, x1 = 0.5 | -9.15e-07 | -9.36e-07 | -9.61e-07 | -9.85e-07 | -1.017e-06 | -1.072e-06 | -1.246e-06 | -1.616e-06 | -2.481e-06 | –
10000 kPa, x1 = 0.75 | -6.44e-07 | -6.7e-07 | -7.12e-07 | -7.46e-07 | -7.89e-07 | -8.43e-07 | -9.16e-07 | -1.12e-06 | -1.949e-06 | –
20000 kPa, x1 = 0.25 | -6.27e-07 | -6.4e-07 | -6.5e-07 | -6.6e-07 | -6.68e-07 | -6.78e-07 | -7.11e-07 | -8e-07 | -8.98e-07 | -1.217e-06
20000 kPa, x1 = 0.5 | -8.31e-07 | -8.38e-07 | -8.45e-07 | -8.51e-07 | -8.57e-07 | -8.64e-07 | -8.73e-07 | -8.91e-07 | -9.52e-07 | -1.421e-06
20000 kPa, x1 = 0.75 | -5.93e-07 | -6.05e-07 | -6.23e-07 | -6.44e-07 | -6.56e-07 | -6.65e-07 | -6.88e-07 | -7.38e-07 | -8.16e-07 | -1.204e-06
30000 kPa, x1 = 0.25 | -5.75e-07 | -5.74e-07 | -5.73e-07 | -5.71e-07 | -5.68e-07 | -5.65e-07 | -5.62e-07 | -5.58e-07 | -5.54e-07 | -5.47e-07
30000 kPa, x1 = 0.5 | -7.62e-07 | -7.51e-07 | -7.38e-07 | -7.26e-07 | -7.09e-07 | -6.92e-07 | -6.64e-07 | -6.29e-07 | -5.87e-07 | -5.46e-07
30000 kPa, x1 = 0.75 | -5.53e-07 | -5.49e-07 | -5.37e-07 | -5.28e-07 | -5.19e-07 | -5.12e-07 | -4.93e-07 | -4.65e-07 | -4.28e-07 | -3.91e-07
40000 kPa, x1 = 0.25 | -5.29e-07 | -5.2e-07 | -5.12e-07 | -5.07e-07 | -4.94e-07 | -4.81e-07 | -4.64e-07 | -4.41e-07 | -4.12e-07 | -3.76e-07
40000 kPa, x1 = 0.5 | -7.02e-07 | -6.85e-07 | -6.67e-07 | -6.47e-07 | -6.14e-07 | -5.71e-07 | -5.13e-07 | -4.66e-07 | -4.01e-07 | -3.36e-07
40000 kPa, x1 = 0.75 | -5.14e-07 | -5.02e-07 | -4.81e-07 | -4.58e-07 | -4.35e-07 | -4.2e-07 | -3.86e-07 | -3.3e-07 | -2.7e-07 | -2.01e-07
50000 kPa, x1 = 0.25 | -4.85e-07 | -4.75e-07 | -4.64e-07 | -4.52e-07 | -4.33e-07 | -4.13e-07 | -3.89e-07 | -3.59e-07 | -3.26e-07 | -2.77e-07
50000 kPa, x1 = 0.5 | -6.49e-07 | -6.32e-07 | -6.06e-07 | -5.81e-07 | -5.37e-07 | -4.75e-07 | -4.04e-07 | -3.42e-07 | -2.68e-07 | -1.97e-07
50000 kPa, x1 = 0.75 | -4.65e-07 | -4.55e-07 | -4.4e-07 | -4.14e-07 | -3.8e-07 | -3.49e-07 | -3e-07 | -2.37e-07 | -1.6e-07 | -8.4e-08
60000 kPa, x1 = 0.25 | -4.61e-07 | -4.39e-07 | -4.23e-07 | -4.05e-07 | -3.83e-07 | -3.56e-07 | -3.27e-07 | -2.9e-07 | -2.45e-07 | -1.86e-07
60000 kPa, x1 = 0.5 | -6.02e-07 | -5.84e-07 | -5.58e-07 | -5.21e-07 | -4.75e-07 | -4.01e-07 | -3.18e-07 | -2.41e-07 | -1.61e-07 | -8.4e-08
60000 kPa, x1 = 0.75 | – | -4.28e-07 | -4.06e-07 | -3.72e-07 | -3.33e-07 | -2.84e-07 | -2.23e-07 | -1.58e-07 | -8.4e-08 | -5e-09
